From US20070191493A1, “Use of n-alkanols as activators of the cftr channel” (priority 2003, published 2007)
Where two headings read alike, the source gives them in different places.

Assays:
[1] = molecular target: T1, human CFTR channel endogenously expressed in Calu-3 (Homo sapiens, UniProt P13569); test: iodide efflux in Calu-3 human bronchial epithelial cells; assay type: cell-based; conditions: for EC50: Calu-3 cells, read-out: half-effect concentration (EC50)
T1 construct: human pulmonary epithelial cells endogenously expressing the CFTR channel; host or cells: Calu-3 human pulmonary epithelial cells
T1 sequence (P13569 whole entry): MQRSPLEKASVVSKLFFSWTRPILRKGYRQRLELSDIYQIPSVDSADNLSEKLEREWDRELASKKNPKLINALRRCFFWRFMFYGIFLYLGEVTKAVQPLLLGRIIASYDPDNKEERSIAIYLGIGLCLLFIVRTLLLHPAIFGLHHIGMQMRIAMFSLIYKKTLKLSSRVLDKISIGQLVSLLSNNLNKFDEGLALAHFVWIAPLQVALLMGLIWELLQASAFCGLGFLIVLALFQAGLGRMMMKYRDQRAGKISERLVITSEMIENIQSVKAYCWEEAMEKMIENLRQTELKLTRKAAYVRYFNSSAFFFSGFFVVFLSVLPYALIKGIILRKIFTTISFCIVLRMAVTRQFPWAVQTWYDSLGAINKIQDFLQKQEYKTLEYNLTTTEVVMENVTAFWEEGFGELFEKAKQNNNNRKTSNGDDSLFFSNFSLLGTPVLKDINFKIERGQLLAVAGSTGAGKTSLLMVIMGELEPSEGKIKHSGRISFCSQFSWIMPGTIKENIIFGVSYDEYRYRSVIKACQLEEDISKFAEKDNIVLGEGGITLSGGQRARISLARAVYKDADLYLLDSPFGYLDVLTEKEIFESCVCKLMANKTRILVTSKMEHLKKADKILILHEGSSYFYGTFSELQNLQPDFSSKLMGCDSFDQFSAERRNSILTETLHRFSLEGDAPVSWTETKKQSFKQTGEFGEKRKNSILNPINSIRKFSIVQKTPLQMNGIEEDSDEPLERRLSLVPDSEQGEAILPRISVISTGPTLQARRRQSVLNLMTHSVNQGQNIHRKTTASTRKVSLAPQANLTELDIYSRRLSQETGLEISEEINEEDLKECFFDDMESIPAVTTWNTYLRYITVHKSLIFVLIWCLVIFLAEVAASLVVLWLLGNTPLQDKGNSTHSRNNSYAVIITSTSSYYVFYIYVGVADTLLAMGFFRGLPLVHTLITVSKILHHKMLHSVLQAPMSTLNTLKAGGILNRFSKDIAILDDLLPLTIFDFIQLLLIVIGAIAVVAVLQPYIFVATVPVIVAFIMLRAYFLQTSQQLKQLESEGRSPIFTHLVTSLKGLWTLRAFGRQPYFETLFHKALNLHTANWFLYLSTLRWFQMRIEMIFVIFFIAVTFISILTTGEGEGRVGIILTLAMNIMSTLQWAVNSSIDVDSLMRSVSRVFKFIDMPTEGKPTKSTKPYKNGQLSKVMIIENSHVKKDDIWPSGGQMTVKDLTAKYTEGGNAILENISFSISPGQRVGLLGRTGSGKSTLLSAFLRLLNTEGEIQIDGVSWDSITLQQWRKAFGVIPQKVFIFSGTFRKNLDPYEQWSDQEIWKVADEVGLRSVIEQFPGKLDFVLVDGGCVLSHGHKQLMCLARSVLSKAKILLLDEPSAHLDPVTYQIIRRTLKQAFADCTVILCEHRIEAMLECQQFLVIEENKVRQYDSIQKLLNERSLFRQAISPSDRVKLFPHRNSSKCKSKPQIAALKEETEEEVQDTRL
Method: The CFTR studies are also carried out on Calu-3 cells (ATCC No. HTB-55), which are human pulmonary epithelial cells endogenously expressing the CFTR channel. These cells are cultured under the same culture conditions as the CHO cells. The study of the mutated CFTR channel is carried out on JME/CF15 cells, which are epithelial cells extracted from respiratory airways of patients suffering from cystic fibrosis (homozygous ΔF508) (Jefferson et al., 1990). These cells therefore express the ΔF508 mutated CFTR channel. These cells are cultured under the same conditions as above, but the culture medium is supplemented with a hormone mixture containing: adenine (180 μM), insulin (5 μg/ml), transferrin (5 μg/ml), hydrocortisone (1.1 μM), triiodothyronine (2 nM), epinephrine (5.5 μM), epidermal growth factor (1.64 nM).
This technique makes it possible to follow the kinetics of exit of the ^125I radioactive iodide. The cells are cultured in 24-well plates with a dilution to 1/10 after passage. On the fourth day of culture, the drugs to be tested are dissolved in solution according to the desired concentration, at 37° C., in medium B, at pH 7.4, containing, in mM: 137 NaCl, 5.36 KCl, 0.8 mM MgCl2, 1.8 mM CaCl2, 5.5 glucose and 10 HEPES-NaOH. The wells are washed 4 times with 500 μl of medium B. The solution is subsequently replaced with 500 μl of loading solution containing 1 μM KI and 0.5 μCi of ^125INa/ml for 30 min. The kinetics of exit of ^125I are determined after having eliminated the loading solution and washed the wells 4 times with 500 μl of medium B. For the ^125I exit kinetics, 500 μl of medium B containing or not containing the molecules to be tested are incubated for 30 sec in the wells and recovered in a hemolysis tube, so as to be replaced with 500 μl of medium B containing or not containing the molecules to be tested. The operation is repeated every 30 s for 2 to 6 min. At the end of the efflux, the intracellular ions are extracted by adding 1 ml of trichloroacetic acid (7.5%) to the cell layer. All the samples are counted in a gamma counter (Kontron). The precipitated proteins are solubilized in 0.1N NaOH and quantified using a calorimetric test.
The tracer contained in the cell layer at the beginning of the efflux is calculated as the sum of the samples and of the extracts counted. The efflux curves are constructed by expressing the percentage of the content remaining in the cell layer (I %) with respect to time. The stimulated or nonstimulated efflux rate constants (k, min^−1) are determined by smoothing the efflux curves to a monoexponential function I %=100*exp(−kt) using a linear regression of the neperian logarithm of the data, k is used to calculate the iodide released into the medium with respect to time. The hypothesis is made that, in the presence of a stimulator, the efflux is the sum of two iodide effluxes occurring in parallel: a basal efflux and a stimulated efflux characterized, respectively, by the constants kb and ks. The total net efflux is then described by the equation It^%=100*(1−exp(−ktt)) where kt is the sum of kb and ks. Finally, ks calculated as kt−kb is used to establish a dose-response relationship for antagonists. The data is expressed as means ±SD, and the t-test is used to determine the significances. […] Y begins at the basal level and progresses to the plateau (Ymax), X is the concentration and the half-effect values (EC are calculated using GraphPad Prism v3.0 (GraphPad software)).

CFTR channel = CFTR channel (Homo sapiens, UniProt P13569); test: whole-cell patch-clamp in CHO-BQ1 cells, reversibility after washing; assay type: cell-based; design: expressed in transfected cells; host or cells: CHO-BQ1 cells; conditions: octan-1-ol 1 mM, washing 15 min with physiological saline
Sequence of CFTR channel (P13569 whole entry): as above
Method: More specifically, culture dishes (cell support) are placed in an experimentation cell (volume 1 ml) on the platform of an inverted microscope (Nikon) equipped with phase-contrast lighting. The whole-cell configuration is used for recording the cell currents (Hamill et al., 1981). The experiments are carried out at ambient temperature (20-22° C.). The currents are amplified with an Axopatch 200B amplifier (Axon Instrument Ltd) having a 2-5 kHz low-pass filter (Bessel 6-pole filter), and recorded on the hard disk of a PC after digitization at 10-25 kHz. The pipettes are produced from glass tubes 1 mm in diameter (Clark Electromedical Instrument) in four steps with a horizontal drawing device (Bruwn Flaming 97, CA).
The pipettes, filled with an intracellular solution containing, in mM: 60 KCl; 80 NMDG ([…]); 10 HEPES; 5 EGTA; 1 CaCl2; 4 MgATP; 0.2 Na3GTP; pH 7.4, titrated with KOH), having a resistance of 5 MΩ. The potentials are expressed as the difference between the potential of the patch electrode and that of the bath. In the whole-cell configuration, they represent the membrane potential of the cell. […] The current-voltage relationships in the stationary state are determined using slow voltage ramps (20 mV/.s) under an imposed voltage condition. […]

## CCCCCCCCO [octan-1-ol]
[1]; in the absence of FSK
  EC50: 1140 µM
[1]; in the presence of FSK (1 μM)
  EC50: 512 µM
[1]; octan-1-ol 0.1 to 10 mM, FSK 1 μM
  activation of iodide efflux in Calu-3 cells, in words: activates the exit of iodide
CFTR channel
  reversibility of the activating effect on CFTR: reversible
